Source: patent publication US11365199B2, “Pyrazole compounds as modulators of FSHR and uses thereof” (Merck Patent GmbH, priority 2013, dated 2022)
Read-outs that look alike come from different tables or passages of the source.

Legend:
[1] = target: T1, follicle-stimulating hormone (FSH) receptor (Rattus norvegicus, UniProt P20395); test: Rat granulosa EC50 FSH (Assay B); format: cell-based; conditions: for EC50: rat granulosa cells, read-out: Assay B: Rat granulosa EC50 FSH; for Emax at 30 µM / Emax at 6 µM: read-out: Assay B: percental effect (response) relative to the maximum response of the FSH standard
T1 construct: endogenous in cells; host or cells: primary rat granulosa cells
T1 sequence (P20395 18-692): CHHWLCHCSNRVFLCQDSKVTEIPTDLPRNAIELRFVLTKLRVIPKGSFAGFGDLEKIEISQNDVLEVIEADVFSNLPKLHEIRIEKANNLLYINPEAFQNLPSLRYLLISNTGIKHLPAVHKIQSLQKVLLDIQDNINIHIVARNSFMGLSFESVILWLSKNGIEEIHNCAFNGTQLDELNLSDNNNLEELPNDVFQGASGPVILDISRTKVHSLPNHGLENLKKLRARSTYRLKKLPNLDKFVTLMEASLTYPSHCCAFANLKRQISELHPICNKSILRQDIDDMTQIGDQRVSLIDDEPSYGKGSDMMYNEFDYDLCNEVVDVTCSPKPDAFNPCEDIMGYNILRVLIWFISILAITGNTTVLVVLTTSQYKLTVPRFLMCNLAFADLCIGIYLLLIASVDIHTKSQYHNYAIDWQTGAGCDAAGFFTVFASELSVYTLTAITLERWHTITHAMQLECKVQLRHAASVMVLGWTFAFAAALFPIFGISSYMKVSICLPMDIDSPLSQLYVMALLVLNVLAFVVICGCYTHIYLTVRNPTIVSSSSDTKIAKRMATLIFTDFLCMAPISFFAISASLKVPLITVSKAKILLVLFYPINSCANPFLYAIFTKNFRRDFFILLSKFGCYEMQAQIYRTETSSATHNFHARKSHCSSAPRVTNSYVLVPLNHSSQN
Procedure: Rat Granulosa EC50 FSH (Assay B)
The assay was performed pursuant to the teaching of Yanofsky et al. (2006) Allosteric activation of the follicle-stimulating hormone (FSH) receptor by selective, nonpeptide agonists (JBC 281(19): 13226-13233, which is incorporated by reference in the disclosure of the invention).

[2] = target: T2, FSHR (Homo sapiens, UniProt P23945); test: EC50 of cyclic AMP production in CHO FSHR cells + EC20 FSH (Assay A); format: cell-based; conditions: CHO FSHR cells + EC20 FSH, cAMP HTRF; read-out: Assay A: EC50 of cyclic AMP production
T2 construct: expressed in transfected cells; host or cells: CHO (Cho-FSHR-LUC-1-1-43)
T2 sequence (P23945 18-695): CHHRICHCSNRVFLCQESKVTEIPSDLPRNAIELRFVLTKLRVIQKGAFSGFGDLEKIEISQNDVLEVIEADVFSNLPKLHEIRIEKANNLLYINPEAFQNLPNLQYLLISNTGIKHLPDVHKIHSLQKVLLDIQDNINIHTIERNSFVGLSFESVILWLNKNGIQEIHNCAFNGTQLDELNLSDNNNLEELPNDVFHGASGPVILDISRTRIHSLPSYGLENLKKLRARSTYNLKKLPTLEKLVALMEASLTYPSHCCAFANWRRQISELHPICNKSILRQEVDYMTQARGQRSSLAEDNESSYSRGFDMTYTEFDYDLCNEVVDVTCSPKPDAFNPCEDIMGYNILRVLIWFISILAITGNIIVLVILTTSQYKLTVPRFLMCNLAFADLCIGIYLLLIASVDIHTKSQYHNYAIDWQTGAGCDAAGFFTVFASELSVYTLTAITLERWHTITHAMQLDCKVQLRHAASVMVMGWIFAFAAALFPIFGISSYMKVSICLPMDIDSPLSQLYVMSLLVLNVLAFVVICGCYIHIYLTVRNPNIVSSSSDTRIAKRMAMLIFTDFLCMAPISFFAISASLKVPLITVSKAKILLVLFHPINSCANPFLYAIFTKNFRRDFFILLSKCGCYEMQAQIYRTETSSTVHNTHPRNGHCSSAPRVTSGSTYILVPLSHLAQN
Outline: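 Cho-FSHR-LUC cells were exposed to compound dilution series with EC20 FSH ([…]) and 200 μM IBMX for 1 h at 37° C. cAMP was read by HTRF (665/620 nm ratio). Effects are percent of the maximal FSH standard response.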

| SMILES | EC50 [1] [nM] | EC50 [2] [nM] | further results |
| --- | --- | --- | --- |
| COc1cc2c(cc1-c1cn[nH]c1)-c1c(c(C(=O)N(C)C(C)(C)C)nn1-c1ccsc1)CO2 [Compound 1, 7-Methoxy-8-(1H-pyrazol-4-yl)-1-thiophen-3-yl-1,4-dihydro-chromeno[4,3-c]pyrazole-3-carboxylic Acid tert-butyl-methyl-amide] | < 100 | < 100 |  |
| COc1cc2c(cc1-c1cccnc1)-c1c(c(C(=O)N(C)C(C)(C)C)nn1-c1ccsc1)CO2 [Compound 2, 7-Methoxy-8-pyridin-3-yl-1-thiophen-3-yl-1,4-dihydro-chromeno[4,3-c]pyrazole-3-carboxylic Acid tert-butyl-methyl-amide] |  | < 100 | Emax at 30 µM [1]: 54% |
| COc1cc2c(cc1-c1cccnc1)-c1c(c(C(=O)N3CCCN(C(=O)C4CCC4)CC3)nn1-c1ccsc1)CO2 [Compound 3, (4-Cyclobutanecarbonyl-[1,4]diazepan-1-yl)-(7-methoxy-8-pyridin-3-yl-1-thiophen-3-yl-1,4-dihydro-chromeno[4,3-c]pyrazol-3-yl)-methanone] | 1000 to 5000 | < 100 |  |
| COc1cc2c(cc1Br)-c1c(c(C(=O)N(C)C(C)(C)C)nn1-c1ccsc1)CO2 [Compound 4, 8-Bromo-7-methoxy-1-thiophen-3-yl-1,4-dihydro-chromeno[4,3-c]pyrazole-3-carboxylic Acid tert-butyl-methyl-amide] |  | 100 to 1000 | Emax at 6 µM [1]: 62% |
| COc1cc2c(cc1CC(C)C)-c1c(c(C(=O)N(C)C(C)(C)C)nn1-c1ccsc1)CO2 [Compound 5, 8-Isobutyl-7-methoxy-1-thiophen-3-yl-1,4-dihydro-chromeno[4,3-c]pyrazole-3-carboxylic Acid tert-butyl-methyl-amide] | 1000 to 5000 | < 100 |  |
| COc1cc2c(cc1C=C(C)C)-c1c(c(C(=O)N(C)C(C)(C)C)nn1-c1ccsc1)CO2 [Compound 6, 7-Methoxy-8-(2-methyl-propenyl)-1-thiophen-3-yl-1,4-dihydro-chromeno[4,3-c]pyrazole-3-carboxylic Acid tert-butyl-methyl-amide] | 1000 to 5000 | < 100 |  |
| COc1cc2c(cc1C=C(C)C)-c1c(c(C(=O)NCCNC(C)=O)nn1-c1ccsc1)CO2 [Compound 7, 7-Methoxy-8-(2-methyl-propenyl)-1-thiophen-3-yl-1,4-dihydro-chromeno[4,3-c]pyrazole-3-carboxylic Acid (2-acetylamino-ethyl)-amide] |  | 1000 to 5000 | Emax at 6 µM ([1]; @ 6 μM): 43.5% |
| COc1cc2c(cc1C=C(C)C)-c1c(c(C(=O)NCCCN3CCOC3=O)nn1-c1ccsc1)CO2 [Compound 9, 7-Methoxy-8-(2-methyl-propenyl)-1-thiophen-3-yl-1,4-dihydro-chromeno[4,3-c]pyrazole-3-carboxylic acid [3-(2-oxo-oxazolidin-3-yl)-propyl]-amide] |  | 1000 to 5000 | Emax at 30 µM ([1]; @ 30 μM): 40.5% |
| COc1cc2c(cc1C=C(C)C)-c1c(c(C(=O)NC(C)(C)CO)nn1-c1ccsc1)CO2 [Compound 10, 7-Methoxy-8-(2-methyl-propenyl)-1-thiophen-3-yl-1,4-dihydro-chromeno[4,3-c]pyrazole-3-carboxylic acid (2-hydroxy-1,1-dimethyl-ethyl)-amide] | 1000 to 5000 | 100 to 1000 |  |
| COc1cc2c(cc1C#N)-c1c(c(C(=O)N(C)C(C)(C)C)nn1-c1ccsc1)CO2 [Compound 12, 8-Cyano-7-methoxy-1-thiophen-3-yl-1,4-dihydro-chromeno[4,3-c]pyrazole-3-carboxylic Acid tert-butyl-methyl-amide] | 1000 to 5000 | < 100 |  |
| COc1cc2c(cc1C=C(C)C)-c1c(c(C(=O)NCCN3CCOC3=O)nn1-c1ccsc1)CO2 [Compound 13, 7-Methoxy-8-(2-methyl-propenyl)-1-thiophen-3-yl-1,4-dihydro-chromeno[4,3-c]pyrazole-3-carboxylic acid [2-(2-oxo-oxazolidin-3-yl)-ethyl]-amide] | 1000 to 5000 | 100 to 1000 |  |
| COC(=O)C1CCCN(C(=O)c2nn(-c3ccsc3)c3c2COc2cc(OC)c(C=C(C)C)cc2-3)CC1 (stereo not shown) [Compound 17, 1-[7-Methoxy-8-(2-methyl-propenyl)-1-thiophen-3-yl-1,4-dihydro-chromeno[4,3-c]pyrazole-3-carbonyl]-azepane-4-carboxylic acid methyl ester] | > 5000 | 100 to 1000 |  |
| COc1cc2c(cc1C=C(C)C)-c1c(c(C(=O)N3CCCC(C(=O)O)CC3)nn1-c1ccsc1)CO2 (stereo not shown) [Compound 18, 1-[7-Methoxy-8-(2-methyl-propenyl)-1-thiophen-3-yl-1,4-dihydro-chromeno[4,3-c]pyrazole-3-carbonyl]-azepane-4-carboxylic acid] |  | 1000 to 5000 | Emax at 30 µM ([1]; @ 30 μM): 30% |
| COc1cc2c(cc1OC(C)C)-c1c(c(C(=O)N(C)C(C)(C)C)nn1-c1ccsc1)CO2 [Compound 19, 8-Isopropoxy-7-methoxy-1-thiophen-3-yl-1,4-dihydro-chromeno[4,3-c]pyrazole-3-carboxylic Acid tert-butyl-methyl-amide] | 1000 to 5000 | < 100 |  |

Continued, in another order:

| EC50 [1] [nM] | EC50 [2] [nM] | SMILES | further results |
| --- | --- | --- | --- |
|  | < 100 | CCn1nc(C)c(-c2cc3c(cc2OC)OCc2c(C(=O)N4CCOCC4(C)C)nn(-c4ccsc4)c2-3)c1C [Compound 204, (3,3-Dimethyl-morpholin-4-yl)-[8-(1-ethyl-3,5-dimethyl-1H-pyrazol-4-yl)-7-methoxy-1-thiophen-3-yl-1,4-dihydro-chromeno[4,3-c]pyrazol-3-yl]-methanone] |  |
|  | 100 to 1000 | COc1cc2c(cc1-c1cnn(CCN3CCCC3)c1)-c1c(c(C(=O)N3CCOCC3(C)C)nn1-c1ccsc1)CO2 [Compound 206, (3,3-Dimethyl-morpholin-4-yl)-{7-methoxy-8-[1-(2-pyrrolidin-1-yl-ethyl)-1H-pyrazol-4-yl]-1-thiophen-3-yl-1,4-dihydro-chromeno[4,3-c]pyrazol-3-yl}-methanone] |  |
|  | < 100 | C=CCn1cc(-c2cc3c(cc2OC)OCc2c(C(=O)N4CCOCC4(C)C)nn(-c4ccsc4)c2-3)cn1 [Compound 207, [8-(1-Allyl-1H-pyrazol-4-yl)-7-methoxy-1-thiophen-3-yl-1,4-dihydro-chromeno[4,3-c]pyrazol-3-yl]-(3,3-dimethyl-morpholin-4-yl)-methanone] |  |
|  | < 100 | CCCn1nc(C)cc1-c1cc2c(cc1OC)OCc1c(C(=O)N3CCOCC3(C)C)nn(-c3ccsc3)c1-2 [Compound 212, (3,3-Dimethyl-morpholin-4-yl)-[7-methoxy-8-(5-methyl-2-propyl-2H-pyrazol-3-yl)-1-thiophen-3-yl-1,4-dihydro-chromeno[4,3-c]pyrazol-3-yl]-methanone] |  |
|  | < 100 | CCn1nccc1-c1cc2c(cc1OC)OCc1c(C(=O)N3CCOCC3(C)C)nn(-c3ccsc3)c1-2 [Compound 213, (3,3-Dimethyl-morpholin-4-yl)-[8-(2-ethyl-2H-pyrazol-3-yl)-7-methoxy-1-thiophen-3-yl-1,4-dihydro-chromeno[4,3-c]pyrazol-3-yl]-methanone] |  |
|  | < 100 | COc1cc2c(cc1-c1ccn(C)n1)-c1c(c(C(=O)N3CCN(C(C)=O)CC3(C)C)nn1-c1ccsc1)CO2 [Compound 216] |  |
